# PMC6271338, “Synthesis and Cytotoxic Evaluation of Alkoxylated Chalcones” (Molecules, 2014)
# Values joined by “and” are separate entries in the source; they are usually repeats but may differ in a detail not shown here. Identical values can stand only once.
# How the values were obtained:
# HepG2 cells = assay: In vitro anti-proliferative SRB assay, HepG2; type: cell-based, human; conditions: for IC50: Homo sapiens, HepG2, increasing concentrations up to 30 μM, mean ± SD of at least three independent experiments; for SI (CC50 HMLE/IC50 HepG2) / SI (CC50 L02/IC50 HepG2): selectivity index; for SI (CC50 HMLE/IC50 HepG2): HMLE vs HepG2; for SI (CC50 L02/IC50 HepG2): L02 vs HepG2
# HeLa cells = assay: In vitro anti-proliferative SRB assay, HeLa; type: cell-based, human; conditions: for IC50: Homo sapiens, HeLa, increasing concentrations up to 30 μM, mean ± SD of at least three independent experiments; for SI (CC50 HMLE/IC50 Hela) / SI (CC50 L02/IC50 Hela): selectivity index; for SI (CC50 HMLE/IC50 Hela): HMLE vs HeLa; for SI (CC50 L02/IC50 Hela): L02 vs HeLa
# MCF-7 cells = assay: In vitro anti-proliferative SRB assay, MCF-7; type: cell-based, human; conditions: for IC50: Homo sapiens, MCF7, increasing concentrations up to 30 μM, mean ± SD of at least three independent experiments; for SI (CC50 HMLE/IC50 MCF7) / SI (CC50 L02/IC50 MCF7): selectivity index; for SI (CC50 HMLE/IC50 MCF7): HMLE vs MCF7; for SI (CC50 L02/IC50 MCF7): L02 vs MCF7
# A549 cells = assay: In vitro anti-proliferative SRB assay, A549; type: cell-based, human; conditions: for IC50: Homo sapiens, A549, increasing concentrations up to 30 μM, mean ± SD of at least three independent experiments; for SI (CC50 HMLE/IC50 A549) / SI (CC50 L02/IC50 A549): selectivity index; for SI (CC50 HMLE/IC50 A549): HMLE vs A549; for SI (CC50 L02/IC50 A549): L02 vs A549
# SW1990 cells = assay: In vitro anti-proliferative SRB assay, SW1990; type: cell-based, human; conditions: for IC50: Homo sapiens, SW1990, increasing concentrations up to 30 μM, mean ± SD of at least three independent experiments; for SI (CC50 HMLE/IC50 SW1990) / SI (CC50 L02/IC50 SW1990): selectivity index; for SI (CC50 HMLE/IC50 SW1990): HMLE vs SW1990; for SI (CC50 L02/IC50 SW1990): L02 vs SW1990
# [1] = Cytotoxicity (SRB) against non-tumoral HMLE cells; type: cell-based, human; conditions: human, HMLE cells (non-tumoral human mammary epithelial cells); increasing concentrations up to 100 μM; mean ± SD of at least three independent experiments; read-out: Normal Human Cell Lines, CC50, HMLE
# [2] = Cytotoxicity (SRB) against non-tumoral L02 cells; type: cell-based, human; conditions: human, L02 cells (non-tumoral human liver cell line); increasing concentrations up to 100 μM; mean ± SD of at least three independent experiments; read-out: Normal Human Cell Lines, CC50, L02
# [3] = tested on: L02 (a human liver cell line); assay: Cytotoxicity (SRB) against non-tumoral L02 cells; type: cell-based; conditions: L02 versus the five tumoral cell lines
# [4] = tested on: five human cancer cell lines (HepG2, HeLa, MCF-7, A549 and SW1990); assay: In vitro anti-proliferative SRB assay, summary statements over the five-line panel; type: cell-based; conditions: most of their in vitro IC50 values against the five human cancer lines
# Procedure: With a aim of identifying potential anticancer agents with enhanced levels of activity, as well as verifying the conclusions provided above, we took a14 as a starting compound, and then designed and synthesized a series of chalcones b1–42 bearing methoxy groups at the 2' and 6'-positions of the B-ring, whilst varying the substituents on the A-ring. The cytotoxicities of the resulting chalcones were evaluated in vitro against five human cancer cell lines and other two non-tumoral cell lines, including HepG2, HeLa, MCF-7, A549, SW1990, HMLE and L02, and the results are shown in Table 2.
# HepG2 and MCF7 cells were grown in the Eagle’s minimum essential medium with Earle’s balanced salts (MEM-EBSS) medium, HeLa, A549 and L02 cells were grown in Dulbecco’s Modified Eagle Media (DMEM), SW1990 cells were grown in RPMI-1640 medium, and HMLE cell were grown in DMEM/F-12 medium. The media were supplemented with 100 U/mL penicillin, […] streptomycin and 10% fetal bovine serum (FBS), and incubated at 37 °C in a humidified atmosphere containing 5% CO2.
# Cells were seeded into 96-well plates (4000 cells/well) and incubated at 37 °C in a humidified 5% CO2 atmosphere. After 24 h, the cells were treated with different concentrations of the compounds for 48 h in triplicate to generate dose-response curves. Cell viability was evaluated using the sulforhodamine B (SRB) assay as previous described. […] Etoposide was used as the positive control.
# [5] = tested on: human mammary epithelial cell (HMLE); assay: Cytotoxicity (SRB) against non-tumoral HMLE cells; type: cell-based; conditions: HMLE versus the five tumoral cell lines
SMILES,IC50 (HepG2 cells),IC50 (HeLa cells),IC50 (MCF-7 cells),IC50 (A549 cells),IC50 (SW1990 cells),IC50 [4],melting point,SI (CC50 HMLE/IC50 HepG2) (HepG2 cells),SI (CC50 L02/IC50 HepG2) (HepG2 cells),SI (CC50 HMLE/IC50 Hela) (HeLa cells),SI (CC50 L02/IC50 Hela) (HeLa cells),SI (CC50 HMLE/IC50 MCF7) (MCF-7 cells),SI (CC50 L02/IC50 MCF7) (MCF-7 cells),SI (CC50 HMLE/IC50 A549) (A549 cells),SI (CC50 L02/IC50 A549) (A549 cells),SI (CC50 HMLE/IC50 SW1990) (SW1990 cells),SI (CC50 L02/IC50 SW1990) (SW1990 cells),CC50 at 48 h [1],CC50 at 48 h [2],SI between the CC50 in HMLE and IC50 in tumoral cells [5],other results
"COc1cccc(OC)c1/C=C/C(=O)c1ccccc1F [b31, (E)-1-(2-Fluorophenyl)-3-(2,6-dimethoxyphenyl)prop-2-en-1-one]",18 ± 0.88 µM,23.3 ± 0.42 µM,23.5 ± 0.98 µM,27.4 ± 0.67 µM,> 30 µM,,66.6 to 68.1 °C,>5.6,>5.6,>4.3,>4.3,>4.3,>4.3,>3.6,>3.6,,,> 100 µM,> 100 µM,2–7 fold,
"COc1cccc(OC)c1/C=C/C(=O)c1cccc(Cl)c1 [b34, (E)-1-(3-Chlorophenyl)-3-(2,6-dimethoxyphenyl)prop-2-en-1-one]",13.5 µM,16.6 µM,22 µM,16.1 µM,21.4 µM,,116.5 to 117.2 °C,0.7,3.5,0.6,2.8,0.4,2.1,0.6,2.9,0.4,2.2,9.42 ± 1.21 µM,46.9 ± 13.9 µM,,SI between the CC50 in L02 and IC50 in tumoral cells [3]: more than 2 fold

# These reach a lower IC50 (HepG2 cells). Values come first.
IC50 (HepG2 cells),IC50 (HeLa cells),IC50 (MCF-7 cells),IC50 (A549 cells),IC50 (SW1990 cells),IC50 [4],melting point,SMILES,SI (CC50 HMLE/IC50 HepG2) (HepG2 cells),SI (CC50 L02/IC50 HepG2) (HepG2 cells),SI (CC50 HMLE/IC50 Hela) (HeLa cells),SI (CC50 L02/IC50 Hela) (HeLa cells),SI (CC50 HMLE/IC50 MCF7) (MCF-7 cells),SI (CC50 L02/IC50 MCF7) (MCF-7 cells),SI (CC50 HMLE/IC50 A549) (A549 cells),SI (CC50 L02/IC50 A549) (A549 cells),SI (CC50 HMLE/IC50 SW1990) (SW1990 cells),SI (CC50 L02/IC50 SW1990) (SW1990 cells),CC50 at 48 h [1],CC50 at 48 h [2],SI between the CC50 in HMLE and IC50 in tumoral cells [5],other results
4.23 ± 0.09 µM,8.72 ± 0.07 µM,8.56 ± 0.17 µM,7.36 ± 0.37 µM,8.2 ± 0.12 µM,< 10 µM,48.8 to 50.4 °C,"CCOc1ccccc1C(=O)/C=C/c1c(OC)cccc1OC [b8, (E)-1-(2-Ethoxyphenyl)-3-(2,6-dimethoxyphenyl)prop-2-en-1-one]",0.2,9.3,0.1,4.5,0.1,4.6,0.1,5.4,0.1,4.8,0.83 ± 0.21 µM,39.6 ± 7.53 µM,,SI between the CC50 in L02 and IC50 in tumoral cells [3]: more than 2 fold
2.76 ± 0.04 µM,3.62 ± 0.07 µM,4.15 ± 0.2 µM,3.63 ± 0.13 µM,7.43 ± 0.56 µM,< 10 µM,94.6 to 97.9 °C,"COc1cccc(OC)c1/C=C/C(=O)c1ccccc1OCc1ccccc1 [b11, (E)-1-(2-(Benzyloxy>)phenyl)-3-(2,6-dimethoxyphenyl)prop-2-en-1-one]",7.6,13.9,5.8,10.6,5.1,9.2,5.8,10.5,2.8,5.2,21 ± 1.26 µM,38.3 ± 5.63 µM,2–7 fold,
0.97 ± 0.04 µM,1.83 ± 0.08 µM,1.79 ± 0.2 µM,1.5 ± 0.07 µM,3.03 ± 0.05 µM,< 10 µM,128.7 to 131.2 °C,"COc1cc(C(=O)/C=C/c2c(OC)cccc2OC)ccc1O [b29, (E)-1-(4-Hydroxy-3-methoxyphenyl)-3-(2,6-dimethoxyphenyl)prop-2-en-1-one]",6.5,>103.1,3.4,>54.6,3.5,>55.9,4.2,>66.7,2.1,>33.0,6.31 ± 0.13 µM,> 100 µM,2–7 fold and 2.1–6.5 fold,"fold more potent than etoposide (A549 cells; A549 cells, ratio of IC50 values versus etoposide): 11.5 fold"
